SMILES | melting point
CCOC(=O)c1ccc(-c2nc(-c3ccccc3)ccc2Cl)cc1 [Example 1, ethyl 4-(3-chloro-6-phenyl-2-pyridyl)benzoate] | 81 to 82 °C
O=C(O)c1ccc(-c2nc(-c3ccccc3)ccc2Cl)cc1 [Example 2, 4-(3-chloro-6-phenyl-2-pyridyl)benzoic acid] | 254 to 255 °C
CCOC(=O)c1ccc(-c2ccc(-c3ccc(C(F)(F)F)cc3)n2C)cc1 [Example 3, ethyl 4-[1-methyl-5-(4-trifluoromethylphenyl)-2-pyrrolyl]benzoate] | 150 to 151 °C
CCOC(=O)c1cccc(-c2ccc(-c3ccc(C(F)(F)F)cc3)o2)c1 [Example 5, ethyl 3-[5-(4-trifluoromethylphenyl)-2-furyl]benzoate] | 93 to 94 °C
O=C(O)c1ccccc1-c1ccc(-c2ccc(C(F)(F)F)cc2)o1 [Example 8, 2-[5-(4-trifluoromethylphenyl)-2-furyl]benzoic acid] | 182 to 183 °C
O=C(OCc1ccccc1)c1cc(-c2ccc(-c3ccc(C(F)(F)F)cc3)o2)ccc1OCc1ccccc1 [Example 11, benzyl 2-benzyloxy-5-[5-(4-trifluoromethylphenyl)-2-furyl]benzoate] | 97 to 98 °C
O=C(O)c1cc(-c2ccc(-c3ccc(C(F)(F)F)cc3)o2)ccc1O [Example 12, 5-[5-(4-trifluoromethylphenyl)-2-furyl]salicylic acid] | 272 to 273 °C
CCOC(=O)c1ccc(-c2ccc(-c3ccc(Cl)cc3)s2)cc1 [Example 13, ethyl 4-[5-(4-chlorophenyl)-2-thienyl]benzoate] | 167 to 168 °C
CCOC(=O)c1ccc(-c2ccc(-c3ccc(C(F)(F)F)cc3)s2)cc1 [Example 14, ethyl 4-[5-(4-trifluoromethylphenyl)-2-thienyl]benzoate] | 203 to 204 °C
COC(=O)c1ccc(-c2cc(-c3ccccc3)no2)cc1 [Example 17, methyl 4-(3-phenyl-5-isoxazolyl)benzoate] | 205 to 206 °C
COC(=O)c1ccc(-c2cc(-c3ccc(Cl)cc3)no2)cc1 [Example 18, methyl 4-[3-(4-chlorophenyl)-5-isoxazolyl]benzoate] | 225 to 226 °C
COC(=O)c1cccc(-c2cc(-c3ccccc3)on2)c1 [Example 20, methyl 3-(5-phenyl-3-isoxazolyl)benzoate] | 99 to 100 °C
COC(=O)c1ccc(-c2cc(-c3ccccc3)on2)cc1 [Example 21, methyl 4-(5-phenyl-3-isoxazolyl)benzoate] | 201 to 202 °C
COC(=O)c1cccc(-c2cc(-c3ccc(Cl)cc3)on2)c1 [Example 22, methyl 3-[5-(4-chlorophenyl)-3-isoxazolyl)benzoate] | 157 to 158 °C
COC(=O)c1ccc(-c2cc(-c3ccc(Cl)cc3)on2)cc1 [Example 23, methyl 4-[5-(4-chlorophenyl)-3-isoxazolyl]benzoate] | 225 to 226 °C
O=C(O)c1ccc(-c2cc(-c3ccccc3)no2)cc1 [Example 24, 4-(3-phenyl-5-isoxazolyl)benzoic acid] | > 300 °C
O=C(O)c1ccc(-c2cc(-c3ccc(Cl)cc3)no2)cc1 [Example 25, 4-[3-(4-chlorophenyl)-5-isoxazolyl]benzoic acid] | > 300 °C
COC(=O)c1cccc(-c2cc(-c3ccc(C(F)(F)F)cc3)on2)c1 [Example 31, methyl 3-[5-(4-trifluoromethylphenyl)-3-isoxazolyl]benzoate] | 139 to 140 °C

SMILES | melting point
COC(=O)c1ccc(-c2cc(-c3ccc(C(F)(F)F)cc3)on2)cc1 [Example 32, methyl 4-[5-(4-trifluoromethylphenyl)-3-isoxazolyl]benzoate] | 183 to 184 °C
COC(=O)c1ccc(-c2n[nH]c(-c3ccccc3)n2)cc1 [Example 36, methyl 4-(5-phenyl-1H-1,2,4-triazol-3-yl)benzoate] | 243 to 244 °C
COC(=O)c1ccc(-c2nc(-c3ccccc3)n(C)n2)cc1 [Example 37, methyl 4-(1-methyl-5-phenyl-1H-1,2,4-triazol-3-yl)benzoate] | 167 to 168 °C
O=C(O)c1ccc(-c2n[nH]c(-c3ccccc3)n2)cc1 [Example 38, 4-(5-phenyl-1H-1,2,4-triazol-3-yl)benzoic acid] | > 300 °C
Cn1nc(-c2ccc(C(=O)O)cc2)nc1-c1ccccc1 [Example 39, 4-(1-methyl-5-phenyl-1H-1,2,4-triazol-3-yl)benzoic acid] | 243 to 244 °C
COC(=O)c1ccc(-c2nc(-c3ccc(C(F)(F)F)cc3)no2)cc1 [Example 40, methyl 4-[3-(4-trifluoromethylphenyl)-1,2,4-oxadiazol-5-yl]benzoate] | 177 to 178 °C
COC(=O)c1ccc(-c2nc(-c3ccc(Oc4ccccc4)cc3)no2)cc1 [Example 41, methyl 4-[3-(4-phenoxyphenyl)-1,2,4-oxadiazol-5-yl]benzoate] | 112 to 113 °C
O=C(O)c1ccc(-c2nc(-c3ccc(C(F)(F)F)cc3)no2)cc1 [Example 42, 4-[3-(4-trifluoromethylphenyl)-1,2,4-oxadiazol-5-yl]benzoic acid] | 293 to 294 °C
O=C(O)c1ccc(-c2nc(-c3ccc(Oc4ccccc4)cc3)no2)cc1 [Example 43, 4-[3-(4-phenoxyphenyl)-1,2,4-oxadiazol-5-yl]benzoic acid] | 278 to 279 °C
COC(=O)c1ccc(-c2nnc(-c3ccccc3)o2)cc1 [Example 45, methyl 4-(5-phenyl-1,3,4-oxadiazol-2-yl)benzoate] | 172 to 173 °C
COC(=O)c1ccc(-c2nnc(-c3ccc(C(C)(C)C)cc3)o2)cc1 [Example 47, methyl 4-[5-(4-t-butylphenyl)-1,3,4-oxadiazol-2-yl]benzoate] | 210 to 211 °C
O=C(O)c1ccc(-c2nnc(-c3ccccc3)o2)cc1 [Example 48, 4-[5-phenyl-1,3,4-oxadiazol-2-yl]benzoic acid] | > 300 °C
O=C(O)c1ccc(-c2nnc(-c3ccc(C(F)(F)F)cc3)o2)cc1 [Example 49, 4-[5-(4-trifluoromethylphenyl)-1,3,4-oxadiazol-2-yl]benzoic acid] | > 300 °C
CC(C)(C)c1ccc(-c2nnc(-c3ccc(C(=O)O)cc3)o2)cc1 [Example 50, 4-[5-(4-t-butylphenyl)-1,3,4-oxadiazol-2-yl]benzoic acid] | 284 to 286 °C
O=C(O)c1cccc(-c2nnc(-c3ccc(C(F)(F)F)cc3)o2)c1 [Example 51, 3-[5-(4-trifluoromethylphenyl)-1,3,4-oxadiazol-2-yl]benzoic acid] | 239 to 240 °C
O=C(O)c1ccc(-c2nnc(-c3ccccc3[N+](=O)[O-])o2)cc1 [Example 52, 4-[5-(2-nitrophenyl)-1,3,4-oxadiazol-2-yl]benzoic acid] | 239 to 240 °C
CCOC(=O)c1ccc(-c2nnc(-c3ccccc3[N+](=O)[O-])o2)cc1 [Example 53, ethyl 4-[5-(2-nitrophenyl)-1,3,4-oxadiazol-2-yl]benzoate] | 127 to 128 °C
CCOC(=O)c1ccc(-c2nnc(-c3ccccc3N)o2)cc1 [Example 54, ethyl 4-[5-(2-aminophenyl)-1,3,4-oxadiazol-2-yl]benzoate] | 174 to 175 °C
